According to patent US10806785B2, “Immunomodulator compounds and methods of use” (Incyte Corporation, priority 2016, dated 2020):

Target: PD-1/PD-L1 (Homo sapiens (Human), UniProt Q9NZQ7)
Assay: PD-1/PD-L1 binding assay (HTRF)
Method: The assays were conducted in a standard black 384-well polystyrene plate with a final volume of 20 μL. Inhibitors were first serially diluted in DMSO and then added to the plate wells before the addition of other reaction components. The final concentration of DMSO in the assay was 1%. The assays were carried out at 25° C. in the PBS buffer (pH 7.4) with 0.05% Tween-20 and 0.1% BSA. Recombinant human PD-L1 protein (19-238) with a His-tag at the C-terminus was purchased from AcroBiosystems (PD1-H5229). Recombinant human PD-1 protein (25-167) with Fc tag at the C-terminus was also purchased from AcroBiosystems (PD1-H5257). PD-L1 and PD-1 proteins were diluted in the assay buffer and 10 μL was added to the plate well. Plates were centrifuged and proteins were preincubated with inhibitors for 40 minutes. The incubation was followed by the addition of 10 μL of HTRF detection buffer supplemented with Europium cryptate-labeled anti-human IgG (PerkinElmer-AD0212) specific for Fc and anti-His antibody conjugated to SureLight®-Allophycocyanin (APC, PerkinElmer-AD0059H). After centrifugation, the plate was incubated at 25° C. for 60 min. before reading on a PHERAstar FS plate reader (665 nm/620 nm ratio). Final concentrations in the assay were […], 10 nM PD-L1, 1 nM europium anti-human IgG and 20 nM anti-His-Allophycocyanin. IC50 determination was performed by fitting the curve of percent control activity versus the log of the inhibitor concentration using the GraphPad Prism 5.0 software.

Sequence of PD-1/PD-L1 (Q9NZQ7 19-238): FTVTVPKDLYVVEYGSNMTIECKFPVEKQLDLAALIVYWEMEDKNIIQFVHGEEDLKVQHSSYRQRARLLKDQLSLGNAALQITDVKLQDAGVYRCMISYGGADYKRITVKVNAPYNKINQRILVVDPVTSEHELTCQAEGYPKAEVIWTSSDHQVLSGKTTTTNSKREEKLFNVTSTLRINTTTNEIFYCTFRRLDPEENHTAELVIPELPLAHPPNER

Row | SMILES | IC50 [nM]
1 | Cn1c(C(=O)Nc2cccc(-c3cccc(NC(=O)c4nc5c(n4C)CCN(C[C@H]4CC[C@H](C(=O)O)CC4)C5)c3C#N)c2Cl)nc2c1CCN(C1CCOCC1)C2 [Compound 157, trans-4-((2-((2′-chloro-2-cyano-3′-(1-methyl-5-(tetrahydro-2H-pyran-4-yl)-4,5,6,7-tetrahydro-1H-imidazo[4,5-c]pyridine-2-carboxamido)-[1,1′-biphenyl]-3-yl)carbamoyl)-1-methyl-1,4,6,7-tetrahydro-5H-imidazo[4,5-c]pyridin-5-yl)methyl)cyclohexane-1-carboxylic acid] | ≤ 10
2 | Cc1c(-c2nc3c(s2)CN(C(=O)CN(C)C(C)C)C3)cccc1-c1cccc(NC(=O)c2nc3c(n2C)CCN(C[C@H]2CC[C@H](C(=O)O)CC2)C3)c1Cl [Compound 158, trans-4-((2-(2-chloro-3′-(5-(2-(isopropyl(methyl)amino)acetyl)-5,6-dihydro-4H-pyrrolo[3,4-d]thiazol-2-yl)-2′-methylbiphenyl-3-ylcarbamoyl)-1-methyl-6,7-dihydro-1H-imidazo[4,5-c]pyridin-5(4H)-yl)methyl)cyclohexane-1-carboxylic acid] | ≤ 10
3 | Cc1c(-c2nc3c(o2)CN(C(=O)CN[C@@H](C)CO)C3)cccc1-c1cccc(NC(=O)c2nc3c(n2C)CCN(C)C3)c1Cl [Compound 164, (S)—N-(2-chloro-3′-(5-((S)-(1-hydroxypropan-2-yl)glycyl)-5,6-dihydro-4H-pyrrolo[3,4-d]oxazol-2-yl)-2′-methyl-[1,1′-biphenyl]-3-yl)-1,5-dimethyl-4,5,6,7-tetrahydro-1H-imidazo[4,5-c]pyridine-2-carboxamide] | ≤ 10
4 | Cc1c(-c2nc3c(o2)CN(C(=O)CN[C@H]2C[C@H](O)C2)C3)cccc1-c1cccc(NC(=O)c2nc3c(n2C)CCN(C)C3)c1Cl [Compound 166, N-(2-chloro-3′-(5-((trans-3-hydroxycyclobutyl)glycyl)-5,6-dihydro-4H-pyrrolo[3,4-d]oxazol-2-yl)-2′-methyl-[1,1′-biphenyl]-3-yl)-1,5-dimethyl-4,5,6,7-tetrahydro-1H-imidazo[4,5-c]pyridine-2-carboxamide] | ≤ 10
5 | Cn1c(C(=O)Nc2cccc(-c3cccc(-c4nc5c(o4)CN(C(=O)CN4CC[C@@H](O)C4)C5)c3Cl)c2Cl)nc2c1CCN(CCC1CCC(C(=O)O)CC1)C2 (stereo partly drawn) [Compound 171, (R)-4-(2-(2-(2,2′-dichloro-3′-(5-(2-(3-hydroxypyrrolidin-1-yl)acetyl)-5,6-dihydro-4H-pyrrolo[3,4-d]oxazol-2-yl)biphenyl-3-ylcarbamoyl)-1-methyl-6,7-dihydro-1H-imidazo[4,5-c]pyridin-5(4H)-yl)ethyl)cyclohexane-1-carboxylic acid] | ≤ 10
6 | CCN(C)CC(=O)N1Cc2nc(-c3cccc(-c4cccc(NC(=O)c5nc6c(n5C)CCN(C[C@H]5CC[C@H](C(=O)O)CC5)C6)c4Cl)c3Cl)oc2C1 [Compound 172, trans-4-((2-((2,2′-dichloro-3′-(5-(N-ethyl-N-methylglycyl)-5,6-dihydro-4H-pyrrolo[3,4-d]oxazol-2-yl)-[1,1′-biphenyl]-3-yl)carbamoyl)-1-methyl-1,4,6,7-tetrahydro-5H-imidazo[4,5-c]pyridin-5-yl)methyl)cyclohexane-1-carboxylic acid] | ≤ 10
7 | CCN(C)CC(=O)N1Cc2nc(-c3cccc(-c4cccc(NC(=O)c5nc6c(n5C)CCN(C5CCC(C)(C(=O)O)CC5)C6)c4C)c3C)oc2C1 (centres unmarked) [Compound 173, 4-(2-((3′-(5-(N-ethyl-N-methylglycyl)-5,6-dihydro-4H-pyrrolo[3,4-d]oxazol-2-yl)-2,2′-dimethyl-[1,1′-biphenyl]-3-yl)carbamoyl)-1-methyl-1,4,6,7-tetrahydro-5H-imidazo[4,5-c]pyridin-5-yl)-1-methylcyclohexane-1-carboxylic acid] | ≤ 10
8 | CCN(C)CCC(=O)N1Cc2nc(-c3cccc(-c4cccc(NC(=O)c5nc6c(n5C)CCN(C5CCC(C)(C(=O)O)CC5)C6)c4Cl)c3Cl)oc2C1 (centres unmarked) [Compound 174, 4-(2-((2,2′-dichloro-3′-(5-(3-(ethyl(methyl)amino)propanoyl)-5,6-dihydro-4H-pyrrolo[3,4-d]oxazol-2-yl)-[1,1′-biphenyl]-3-yl)carbamoyl)-1-methyl-1,4,6,7-tetrahydro-5H-imidazo[4,5-c]pyridin-5-yl)-1-methylcyclohexane-1-carboxylic acid] | ≤ 10
9 | CCN1CCc2c(nc(C(=O)Nc3cccc(-c4cccc(NC(=O)c5nc6c(n5C)CCN(CC57CCC(C(=O)O)(CC5)C7)C6)c4Cl)c3Cl)n2C)C1 [Compound 176, 4-((2-(2,2′-dichloro-3′-(5-ethyl-1-methyl-4,5,6,7-tetrahydro-1H-imidazo[4,5-c]pyridine-2-carboxamido)biphenyl-3-ylcarbamoyl)-1-methyl-6,7-dihydro-1H-imidazo[4,5-c]pyridin-5(4H)-yl)methyl)bicyclo[2.2.1]heptane-1-carboxylic acid] | ≤ 10
10 | CC(C)N1CCc2c(nc(C(=O)Nc3cccc(-c4cccc(NC(=O)c5nc6c(n5C)CCN(CC57CCC(C(=O)O)(CC5)C7)C6)c4Cl)c3Cl)n2C)C1 [Compound 177, 4-((2-(2,2′-dichloro-3′-(5-isopropyl-1-methyl-4,5,6,7-tetrahydro-1H-imidazo[4,5-c]pyridine-2-carboxamido)biphenyl-3-ylcarbamoyl)-1-methyl-6,7-dihydro-1H-imidazo[4,5-c]pyridin-5(4H)-yl)methyl)bicyclo[2.2.1]heptane-1-carboxylic acid] | ≤ 10

Continued, values first:

Row | IC50 [nM] | SMILES
11 | ≤ 10 | CCN1CCc2c(nc(C(=O)Nc3cccc(-c4cccc(NC(=O)c5nc6c(n5C)CCN(C[C@H]5CC[C@H](C(=O)O)CC5)C6)c4C#N)c3Cl)n2C)C1 [Compound 156, trans-4-((2-((2′-chloro-2-cyano-3′-(5-ethyl-1-methyl-4,5,6,7-tetrahydro-1H-imidazo[4,5-c]pyridine-2-carboxamido)-[1,1′-biphenyl]-3-yl)carbamoyl)-1-methyl-1,4,6,7-tetrahydro-5H-imidazo[4,5-c]pyridin-5-yl)methyl)cyclohexane-1-carboxylic acid]
12 | ≤ 10 | Cc1c(-c2nc3c(o2)CN(C(=O)CN2CC[C@](C)(C(=O)O)C2)C3)cccc1-c1cccc(NC(=O)c2nc3c(n2C)CCN(C)C3)c1Cl [Compound 163, (S)-1-(2-(2-(2′-chloro-3′-(1,5-dimethyl-4,5,6,7-tetrahydro-1H-imidazo[4,5-c]pyridine-2-carboxamido)-2-methyl-[1,1′-biphenyl]-3-yl)-4,6-dihydro-5H-pyrrolo[3,4-d]oxazol-5-yl)-2-oxoethyl)-3-methylpyrrolidine-3-carboxylic acid]
13 | ≤ 10 | Cc1c(-c2nc3c(o2)CN(C(=O)CN[C@H]2C[C@@H](O)C2)C3)cccc1-c1cccc(NC(=O)c2nc3c(n2C)CCN(C)C3)c1Cl [Compound 165, N-(2-chloro-3′-(5-((cis-3-hydroxycyclobutyl)glycyl)-5,6-dihydro-4H-pyrrolo[3,4-d]oxazol-2-yl)-2′-methyl-[1,1′-biphenyl]-3-yl)-1,5-dimethyl-4,5,6,7-tetrahydro-1H-imidazo[4,5-c]pyridine-2-carboxamide]
14 | ≤ 10 | Cc1c(-c2nc3c(o2)CN(C(=O)CN2CCC(C(=O)O)CC2)C3)cccc1-c1cccc(NC(=O)c2nc3c(n2C)CCN(C)C3)c1Cl [Compound 167, 1-(2-(2-(2′-chloro-3′-(1,5-dimethyl-4,5,6,7-tetrahydro-1H-imidazo[4,5-c]pyridine-2-carboxamido)-2-methyl-[1,1′-biphenyl]-3-yl)-4,6-dihydro-5H-pyrrolo[3,4-d]oxazol-5-yl)-2-oxoethyl)piperidine-4-carboxylic acid]
15 | ≤ 10 | Cc1c(-c2nc3c(o2)CN(C(=O)CN(C)C)C3)cccc1-c1cccc(NC(=O)c2nc3c(n2C)CCN(C2CCC(C)(C(=O)O)CC2)C3)c1Cl (centres unmarked) [Compound 168, 4-(2-((2-chloro-3′-(5-(dimethylglycyl)-5,6-dihydro-4H-pyrrolo[3,4-d]oxazol-2-yl)-2′-methyl-[1,1′-biphenyl]-3-yl)carbamoyl)-1-methyl-1,4,6,7-tetrahydro-5H-imidazo[4,5-c]pyridin-5-yl)-1-methylcyclohexane-1-carboxylic acid]
16 | ≤ 10 | CCN(C)CC(=O)N1Cc2nc(-c3cccc(-c4cccc(NC(=O)c5nc6c(n5C)CCN(CCC5CCC(C(=O)O)CC5)C6)c4Cl)c3Cl)oc2C1 (centres unmarked) [Compound 169, 4-(2-(2-((2,2′-dichloro-3′-(5-(N-ethyl-N-methylglycyl)-5,6-dihydro-4H-pyrrolo[3,4-d]oxazol-2-yl)-[1,1′-biphenyl]-3-yl)carbamoyl)-1-methyl-1,4,6,7-tetrahydro-5H-imidazo[4,5-c]pyridin-5-yl)ethyl)cyclohexane-1-carboxylic acid]
17 | ≤ 10 | Cn1c(C(=O)Nc2cccc(-c3cccc(-c4nc5c(o4)CN(C(=O)CN4CC(O)C4)C5)c3Cl)c2Cl)nc2c1CCN(CCC1CCC(C(=O)O)CC1)C2 (centres unmarked) [Compound 170, 4-(2-(2-(2,2′-dichloro-3′-(5-(2-(3-hydroxyazetidin-1-yl)acetyl)-5,6-dihydro-4H-pyrrolo[3,4-d]oxazol-2-yl)biphenyl-3-ylcarbamoyl)-1-methyl-6,7-dihydro-1H-imidazo[4,5-c]pyridin-5(4H)-yl)ethyl)cyclohexane-1-carboxylic acid]
